Measurements from PubChem BioAssay AID228 (DTP/NCI, 2004).
Several values for one entry are separate records, joined by “and”; a condition that tells them apart may be missing. Identical values can stand only once. Results filed as inconclusive are left out.

Tested on: BDF1 mice, Friend leukemia sc, tumor weight T/C
Test: NCI In Vivo Anticancer Drug Screen. Data for tumor model Friend Virus Leukemia (Solid) (subcutaneous) in B6D2F1 (BDF1) mice
Details: endpoint: mean tumor weight, higher = larger tumour
Description: The antitumor activity of compounds was measured in mice bearing transplantable tumors. Survival or tumor size were measured and the results are expressed as the measurement made in the treated group (T) divided by the measurement made in the vehicle treated control group (C). The tumor model used in this assay is Friend Virus Leukemia (Solid) (subcutaneous) in B6D2F1 (BDF1) mice

[1] = dose: 1.5 mg/kg/injection, schedule: Q01DX011 (ip), vehicle: carboxymethylcellulose (CMC)
[2] = dose: 3.0 mg/kg/injection, schedule: Q01DX011 (ip), vehicle: carboxymethylcellulose (CMC)
[3] = dose: 6.0 mg/kg/injection, schedule: Q01DX011 (ip), vehicle: carboxymethylcellulose (CMC)
[4] = dose: 50.0 mg/kg/injection, schedule: Q01DX011 (ip), vehicle: carboxymethylcellulose (CMC)
[5] = dose: 50.0 mg/kg/injection, schedule: Q01DX011 (ip), vehicle: saline
[6] = dose: 37.5 mg/kg/injection, schedule: Q01DX011 (ip), vehicle: carboxymethylcellulose (CMC)
[7] = dose: 75.0 mg/kg/injection, schedule: Q01DX011 (ip), vehicle: carboxymethylcellulose (CMC)
[8] = dose: 22.0 mg/kg/injection, schedule: Q01DX011 (ip), vehicle: carboxymethylcellulose (CMC)
[9] = dose: 45.0 mg/kg/injection, schedule: Q01DX011 (ip), vehicle: carboxymethylcellulose (CMC)
[10] = dose: 90.0 mg/kg/injection, schedule: Q01DX011 (ip), vehicle: carboxymethylcellulose (CMC)
[11] = dose: 180.0 mg/kg/injection, schedule: Q01DX011 (ip), vehicle: carboxymethylcellulose (CMC)
[12] = dose: 25.0 mg/kg/injection, schedule: Q01DX011 (ip), vehicle: carboxymethylcellulose (CMC)
[13] = dose: 150.0 mg/kg/injection, schedule: Q01DX011 (ip), vehicle: carboxymethylcellulose (CMC)

Structure (SMILES): O=P1(N(CCCl)CCCl)NCCCO1 (configuration not stated)
- T/C (dose: 0.5 mg/kg/injection, schedule: Q01DX015 (ip), vehicle: saline): 183 % of control
- T/C (dose: 1.0 mg/kg/injection, schedule: Q01DX015 (ip), vehicle: saline): 209 % of control
- T/C [1]: 93 % of control
- T/C (dose: 2.0 mg/kg/injection, schedule: Q01DX015 (ip), vehicle: saline): 224 % of control
- T/C [2]: 81 % of control
- T/C (dose: 3.0 mg/kg/injection, schedule: Q01DX015 (ip), vehicle: saline): 224 % of control
- T/C (dose: 4.0 mg/kg/injection, schedule: Q01DX015 (ip), vehicle: saline): 225 % of control
- T/C [3]: 89 % of control
- T/C (dose: 6.2 mg/kg/injection, schedule: Q01DX011 (ip), vehicle: saline): 117 % of control
- T/C (dose: 6.25 mg/kg/injection, schedule: Q01DX011 (ip), vehicle: carboxymethylcellulose (CMC)): 28 % of control
- T/C (dose: 7.12 mg/kg/injection, schedule: Q01DX011 (ip), vehicle: saline): 105 % of control
- T/C (dose: 8.0 mg/kg/injection, schedule: Q01DX011 (ip), vehicle: saline): 101 % of control
- T/C (dose: 12.0 mg/kg/injection, schedule: Q01DX011 (ip), vehicle: saline): 58 % of control
- T/C (dose: 12.5 mg/kg/injection, schedule: Q01DX011 (ip), vehicle: carboxymethylcellulose (CMC)): 37 % of control
- T/C (dose: 12.5 mg/kg/injection, schedule: Q01DX011 (ip), vehicle: saline): 64 % of control
- T/C (dose: 14.25 mg/kg/injection, schedule: Q01DX011 (ip), vehicle: saline): 52 % of control
- T/C (dose: 23.0 mg/kg/injection, schedule: Q01DX011 (ip), vehicle: saline): 14 % of control
- T/C (dose: 25.0 mg/kg/injection, schedule: Q01DX011 (ip), vehicle: saline): 14 % of control
- T/C (dose: 28.5 mg/kg/injection, schedule: Q01DX011 (ip), vehicle: saline): 32 % of control
- T/C (dose: 29.0 mg/kg/injection, schedule: Q01DX011 (ip), vehicle: saline): 6 % of control
- T/C [4]: 7 % of control and 10 % of control and 11 % of control

Structure (SMILES): CC(C)NCC(=O)c1ccc(O)c(O)c1
- T/C [5]: 95 % of control
- T/C (dose: 100.0 mg/kg/injection, schedule: Q01DX011 (ip), vehicle: saline): 110 % of control
- T/C (dose: 200.0 mg/kg/injection, schedule: Q01DX011 (ip), vehicle: saline): 102 % of control

Structure (SMILES): O=C1N(Cl)C(=O)C(c2ccc(Cl)cc2)(c2ccc(Cl)cc2)N1Cl
- T/C (dose: 15.0 mg/kg/injection, schedule: Q01DX011 (ip), vehicle: carboxymethylcellulose (CMC)): 56 % of control
- T/C (dose: 30.0 mg/kg/injection, schedule: Q01DX011 (ip), vehicle: carboxymethylcellulose (CMC)): 42 % of control
- T/C (dose: 60.0 mg/kg/injection, schedule: Q01DX011 (ip), vehicle: carboxymethylcellulose (CMC)): 33 % of control
- T/C (dose: 120.0 mg/kg/injection, schedule: Q01DX011 (ip), vehicle: carboxymethylcellulose (CMC)): 47 % of control

Structure (SMILES): S=C(N=Nc1ccccc1)NNc1ccccc1
- T/C [6]: 92 % of control

Structure (SMILES): Brc1ncnc2nc[nH]c12
- T/C [7]: 51 % of control
- T/C (dose: 113.0 mg/kg/injection, schedule: Q01DX011 (ip), vehicle: carboxymethylcellulose (CMC)): 82 % of control
- T/C (dose: 171.0 mg/kg/injection, schedule: Q01DX011 (ip), vehicle: carboxymethylcellulose (CMC)): 43 % of control
- T/C (dose: 256.0 mg/kg/injection, schedule: Q01DX011 (ip), vehicle: carboxymethylcellulose (CMC)): 34 % of control

Structure (SMILES): C=CCNc1ccc(C)cc1
- T/C [8]: 60 % of control
- T/C [9]: 58 % of control
- T/C [10]: 35 % of control

Structure (SMILES): CC(/C=N/N=C(N)N)=N/N=C(N)N
- T/C [5]: 124 % of control

Structure (SMILES): NCCCC(NC(=O)CCCCCCCCN=C(N)N)C(O)CCCCCCCCN=C(N)N (configuration not stated)
- T/C (dose: 0.38 mg/kg/injection, schedule: Q01DX011 (ip), vehicle: carboxymethylcellulose (CMC)): 102 % of control
- T/C (dose: 0.75 mg/kg/injection, schedule: Q01DX011 (ip), vehicle: carboxymethylcellulose (CMC)): 82 % of control
- T/C [1]: 92 % of control
- T/C [2]: 96 % of control
- T/C [3]: 79 % of control

Structure (SMILES): O=C1C=Cc2ccc(O)cc2C1=O
- T/C (dose: 1.25 mg/kg/injection, schedule: Q01DX011 (ip), vehicle: carboxymethylcellulose (CMC)): 108 % of control
- T/C (dose: 2.5 mg/kg/injection, schedule: Q01DX011 (ip), vehicle: carboxymethylcellulose (CMC)): 83 % of control
- T/C (dose: 10.0 mg/kg/injection, schedule: Q01DX011 (ip), vehicle: carboxymethylcellulose (CMC)): 102 % of control

Structure (SMILES): CC(C)CCSc1nc(N)nc2nc[nH]c12
- T/C (dose: 11.0 mg/kg/injection, schedule: Q01DX011 (ip), vehicle: carboxymethylcellulose (CMC)): 59 % of control
- T/C [8]: 38 % of control
- T/C [9]: 18 % of control and 21 % of control
- T/C [10]: 7 % of control and 21 % of control
- T/C [11]: 5 % of control

Structure (SMILES): O=c1c[n+](-c2ccccc2)[nH]o1
- T/C (dose: 22.5 mg/kg/injection, schedule: Q01DX011 (ip), vehicle: carboxymethylcellulose (CMC)): 89 % of control
- T/C [9]: 76 % of control
- T/C [10]: 74 % of control
- T/C [11]: 78 % of control

Structure (SMILES): O=C(Nc1ccc(C2=NCCN2)cc1)c1cccc(C(=O)Nc2ccc(C3=NCCN3)cc2)c1
- T/C (dose: 25.0 mg/kg/injection, schedule: Q01DX011 (ip), vehicle: water): 72 % of control

Structure (SMILES): CC1(C)N=C(N)N=C(N)N1c1cccc(Br)c1
- T/C [12]: 88 % of control

Structure (SMILES): O=C(C[N+]12CN3CN(CN(C3)C1)C2)c1ccc(Cl)cc1
- T/C [6]: 101 % of control
- T/C [13]: 117 % of control
- T/C (dose: 300.0 mg/kg/injection, schedule: Q01DX011 (ip), vehicle: carboxymethylcellulose (CMC)): 93 % of control

Structure (SMILES): CCCSc1ncnc2nc[nH]c12
- T/C (dose: 18.75 mg/kg/injection, schedule: Q01DX011 (ip), vehicle: carboxymethylcellulose (CMC)): 64 % of control
- T/C [6]: 64 % of control
- T/C [7]: 45 % of control
- T/C [13]: 8 % of control

Structure (SMILES): NC(=O)/C=C/C(=O)O (tested in a mixture with another compound)
- T/C (dose: 7.5 mg/kg/injection, schedule: Q#A X022 (ip), vehicle: carboxymethylcellulose (CMC)): 78 % of control
- T/C (dose: 15.5 mg/kg/injection, schedule: Q#A X022 (ip), vehicle: carboxymethylcellulose (CMC)): 66 % of control

Structure (SMILES): C=CC(=O)NCNC(=O)C=C
- T/C (dose: 15.0 mg/kg/injection, schedule: Q01DX011 (ip), vehicle: saline): 89 % of control
- T/C (dose: 30.0 mg/kg/injection, schedule: Q01DX011 (ip), vehicle: saline): 84 % of control
- T/C (dose: 60.0 mg/kg/injection, schedule: Q01DX011 (ip), vehicle: saline): 70 % of control and 51 % of control
- T/C (dose: 120.0 mg/kg/injection, schedule: Q01DX011 (ip), vehicle: saline): 16 % of control and 39 % of control

Structure (SMILES): Cc1cc2nc3c(=O)[nH]c(=O)nc-3n(CCOC(=O)CCC(=O)O)c2cc1C
- T/C (dose: 42.0 mg/kg/injection, schedule: Q01DX011 (ip), vehicle: carboxymethylcellulose (CMC)): 96 % of control
- T/C (dose: 84.0 mg/kg/injection, schedule: Q01DX011 (ip), vehicle: carboxymethylcellulose (CMC)): 108 % of control
- T/C (dose: 168.0 mg/kg/injection, schedule: Q01DX011 (ip), vehicle: carboxymethylcellulose (CMC)): 83 % of control
- T/C (dose: 236.0 mg/kg/injection, schedule: Q01DX011 (ip), vehicle: carboxymethylcellulose (CMC)): 59 % of control

Structure (SMILES): O=C1CN(/N=C\c2ccc([N+](=O)[O-])o2)C(=O)N1
- T/C (dose: 4.7 mg/kg/injection, schedule: Q01DX011 (ip), vehicle: carboxymethylcellulose (CMC)): 101 % of control
- T/C (dose: 9.5 mg/kg/injection, schedule: Q01DX011 (ip), vehicle: carboxymethylcellulose (CMC)): 91 % of control and 96 % of control
- T/C (dose: 19.0 mg/kg/injection, schedule: Q01DX011 (ip), vehicle: carboxymethylcellulose (CMC)): 96 % of control and 100 % of control

Structure (SMILES): ClCCn1cnc2c(SCc3ccccc3Cl)ncnc21
- T/C [2]: 72 % of control
- T/C [3]: 81 % of control
- T/C (dose: 12.0 mg/kg/injection, schedule: Q01DX011 (ip), vehicle: carboxymethylcellulose (CMC)): 77 % of control
- T/C [12]: 36 % of control
- T/C [4]: 43 % of control
- T/C (dose: 100.0 mg/kg/injection, schedule: Q01DX011 (ip), vehicle: carboxymethylcellulose (CMC)): 43 % of control
- T/C (dose: 200.0 mg/kg/injection, schedule: Q01DX011 (ip), vehicle: carboxymethylcellulose (CMC)): 10 % of control and 25 % of control
- T/C (dose: 400.0 mg/kg/injection, schedule: Q01DX011 (ip), vehicle: carboxymethylcellulose (CMC)): 16 % of control

Structure (SMILES): CCN(CC)CC(C)Nc1ccc(C)c2sc3ccccc3c(=O)c12 (configuration not stated)
- T/C [12]: 103 % of control
- T/C [4]: 60 % of control

Structure (SMILES): NC(Cc1cccs1)C(=O)O (configuration not stated)
- T/C (dose: 250.0 mg/kg/injection, schedule: Q01DX011 (ip), vehicle: carboxymethylcellulose (CMC)): 112 % of control
